Experimental data from US6436445B1, “Antimicrobial and antiviral compositions containing an oxidizing species” (Ecolab Inc., priority 1999, dated 2002).
Like-named read-outs stand apart in the source and are kept apart here. Marks after values point to notes of the source that are not given here.

What was measured:
E. coli ATCC 11229 = assay: Log reduction of bacteria by liquid compositions, 30 second contact (E. coli); format: cell-based; details: for Log Reduction E. coli / Log Reduction: 30 second contact time; for Log Reduction E. coli: vs. untreated control; for Log Reduction: E. coli
Source text: (§1) A variety of nitrogen sources are utilized. Results recorded include the color of the solution and the microbial log reduction of gram-positive and gram-negative bacteria (E. coli and S. aureus, respectively). As shown earlier there is a direct correlation between color of the solution and microbial efficacy. […] Looking at Table 6, there is an obvious direct correlation between color and antimicrobial activity. Table 7 compares formulas of the present invention with prior art examples for the reduction of gram-positive and gram-negative bacteria. […] Results recorded include the pH of the solution, the color of the solution and the log reduction in microbe.

S. aureus = assay: Log reduction of bacteria by liquid compositions, 30 second contact (S. aureus); format: cell-based; details: for Log Reduction S. aureus: vs. untreated control
Source text: as §1

Feline parvovirus = details: cited from earlier work
[1] = tested on: Penicillium expansum (ATCC 7861); assay: Mold spore suspension test, exposure, neutralization, plating on Sabouraud Dextrose agar; format: cell-based; details: P. expansum, 15 minute contact time
[2] = tested on: Total bacterial flora on prerigor beef tissue surfaces; assay: Microbial reduction on prerigor beef tissue surfaces, 30 second treatment; format: cell-based
[3] = published results against Feline parvovirus
[4] = Actives Conc. 300 ppm, 30 second exposure

Compound: cocodimethyl betaine
- Log Reduction E. coli (E. coli ATCC 11229): 0 log
- Log Reduction S. aureus (S. aureus; 30 second contact time): 0 log

Compound: CC(C)O [IPA]
- Minimum Concentration (for 10-minute inactivation) (Feline parvovirus; [3]): 500,000 ppm

Compound: CCCCCCCCCC[N+](C)(C)CCCCCCCCCC.[Cl-] [didecyl dimethyl ammonium chloride]
- Log Reduction ([1]; N-source:H2O2:KI 100:0:0 ppm, pH 7): 1.0* log
- Log Reduction (Z. bailii; N-source:H2O2:KI 20:0:0 ppm, pH 3, 30 second contact time): 0.1 log

Compound: cocoa dimethyl betaine
- Log Reduction E. coli (E. coli ATCC 11229): 0 log
- Log Reduction S. aureus (S. aureus; 30 second contact time): 0 log

Compound: CC(O)C(=O)O (centres unmarked) [lactic acid]
- Log Reduction ([2]; Active Antimicrobial 5000 ppm, treated 30 seconds, drained 10 minutes, relative to untreated starting meat carcass): 0.8 log

Compound: [I-].[K+] [KI, potassium iodide]
- Log Reduction ([1]; N-source:H2O2:KI 0:0:500 ppm, pH 5): 0.0* log
- Log Reduction E. coli (E. coli ATCC 11229): 0 log
- Log Reduction S. aureus (S. aureus; 30 second contact time): 0 log

Compound: [Na+].[O-]Cl [NaOCl]
- Minimum Concentration (for 10-minute inactivation) (Feline parvovirus; [3]): 2,000 ppm

Compound: Oc1ccccc1-c1ccccc1 [o-phenylphenol G, o-phenylphenol]
- Minimum Concentration (for 10-minute inactivation) (Feline parvovirus; [3]): 100,000 ppm

Compound: OO [Formula H2O2, hydrogen peroxide]
- Log Reduction ([1]; N-source:H2O2:KI 0:532:0 ppm, pH 5): 0.0* log
- Log Reduction E. coli (E. coli ATCC 11229): 0.2 log
- Log Reduction (CFU/ml) E. coli (E. coli ATCC 11229; [4]): 0.2 log CFU/ml
- Log Reduction (E. coli ATCC 11229; N-source:H2O2:KI 0:300:0 ppm, pH 5): 0.2 log
- Log Reduction S. aureus (S. aureus; 30 second contact time): 0 log
- Log Reduction (CFU/ml) S. aureus (S. aureus; [4]): 0.4 log CFU/ml
- Log Reduction (S. aureus; S. aureus, N-source:H2O2:KI 0:300:0 ppm, pH 5, 30 second contact time): 0.4 log
- Log Reduction (Z. bailii; N-source:H2O2:KI 0:532:0 ppm, pH 3, 30 second contact time): 0.1 log
- Log Reduction (Z. bailii; N-source:H2O2:KI 0:532:0 ppm, pH 5, 30 second contact time): 0.1 log
- Log Reduction (Z. bailii; N-source:H2O2:KI 0:532:0 ppm, pH 7, 30 second contact time): 0.1 log

Compound: C[N+](C)(C)CCO.[Cl-] [choline chloride]
- Log Reduction E. coli (E. coli ATCC 11229): 0 log
- Log Reduction (E. coli ATCC 11229; N-source:H2O2:KI 300:0:0 ppm, pH 7): 0.0 log
- Log Reduction S. aureus (S. aureus; 30 second contact time): 0 log
- Log Reduction (Z. bailii; N-source:H2O2:KI 300:0:0 ppm, pH 7, 30 second contact time): 0.0 log

Compound: CCCCCCCC[N+](C)(C)[O-] [C8 amine oxide, Octyl dimethyl aznine oxide]
- Log Reduction E. coli (E. coli ATCC 11229): 0 log
- Log Reduction S. aureus (S. aureus; 30 second contact time): 0 log

Compound: CCO [Ethanol]
- Minimum Concentration (for 10-minute inactivation) (Feline parvovirus; [3]): 500,000 ppm

Compound: CCCCCCCCCCCCCCCC[n+]1ccccc1 [cetyl pyridinium chloride]
- Log Reduction [2]: 0.5 log

Compound: O=CCCCC=O [Glutaraldehyde]
- Minimum Concentration (for 10-minute inactivation) (Feline parvovirus; published, (2-log)): 10,000
